We go through 30 compounds from patent publication US20230391792A1, “METHODS AND COMPOSITIONS FOR TARGETED PROTEIN DEGRADATION” (Ranok Therapeutics (Hangzhou) Co. Ltd., priority 2020, published 2023).

This assay deals with T1, HSP90α protein (N-terminal) (Homo sapiens, UniProt P07900).
T1 construct: purchased BPS Bioscience #50298
Put plainly: HSP90α-binding fluorescent polarization (FP) assay, competition with BODIPY-labeled RNK04010. The note with it: probe RNK04010 (BODIPY-labeled) 5 nM, 25° C. 300 min. How it is done:
Binding of test compounds to HSP90α protein was measured by fluorescent polarization (FP) using the HSP90α (N-terminal) Assay Kit (BPS Bioscience, #50298), following the manufacturer's instructions, except as noted. Fluorescently labeled HSP90-binding compounds, either the provided FITC-geldanamycin (5 nM final concentration) or RNK04010, a triazolone-based HSP90-binding small molecule labeled with BODIPY through a piperizine-phenyl linker (5 nM final concentration) were employed. A 2.5-fold serial dilution of each test compound ranging from 20 μM to 5.2 nM was assayed for binding to HSP90α. After the final step of adding HSP90α protein to each assay well, plates were mixed by brief shaking, incubated at 25° C. for 120 min for FITC-geldanamycin or 300 min for RNK04010, and fluorescence was measured using a PerkinElmer EnVision Plate Reader.
HSP90α-binding fluorescent polarization (FP) assays measuring competition with the fluorescently labeled HSP90 binders, FITC-geldanamycin or RNK04010 (BODIPY-labeled), were applied to assess the binding capabilities of CHAMP molecules to HSP90.

The structures appear in SMILES notation.

`Cc1sc2c(c1C)C(c1ccc(Cl)cc1)=N[C@@H](CC(=O)N1CCN(Cc3ccc(-n4c(O)nnc4-c4cc(C(C)C)c(O)cc4O)cc3)[C@@H](C)C1)c1nnc(C)n1-2` [Compound 107] displayed an IC50 of 100 to 1000 nM. Take `CCNC(=O)c1nnc(-c2cc(CC)c(O)cc2O)n1-c1ccc(CN2CCN(CC3CCN(C(=O)C[C@@H]4N=C(c5ccc(Cl)cc5)c5c(sc(C)c5C)-n5c(C)nnc54)CC3)CC2)cc1` [Compound 59]: the IC50 was < 100 nM. Regarding `COc1cccc(-c2cc(C(=O)Nc3ccc(-c4ccc(OC5CCN(C)CC5)cc4OCCN(C)C(=O)CNC(=O)C[C@@H]4N=C(c5ccc(Cl)cc5)c5c(sc(C)c5C)-n5c(C)nnc54)cc3)ccc2OC)c1` [Compound 83], the IC50 is > 1000 nM. For `CCN(CC)CCNC(=O)c1nnc(-c2cc(C(C)C)c(O)cc2O)n1-c1ccc(CN2CCN(CC3CCN(C(=O)C[C@@H]4N=C(c5ccc(Cl)cc5)c5c(sc(C)c5C)-n5c(C)nnc54)CC3)CC2)cc1` [Compound 90], the IC50 was < 100 nM. Consider `CCc1cc(-c2nnc(C(=O)NC(C)C)n2-c2ccc(CN3CCN(CC4CCN(C(=O)C[C@@H]5N=C(c6ccc(Cl)cc6)c6c(sc(C)c6C)-n6c(C)nnc65)CC4)CC3)cc2)c(O)cc1O` [Compound 74], for which the IC50 is < 100 nM. For `Cc1sc2c(c1C)C(c1ccc(Cl)cc1)=N[C@@H](CC(=O)N1CCN(Cc3ccc(-n4c(O)nnc4-c4cc(C(C)C)c(O)cc4O)cc3)[C@H](C)C1)c1nnc(C)n1-2` [Compound 106] the value was 100 to 1000 nM. For `CCOc1cc(N2CCC(C(=O)NCCOCCNC(=O)O[C@H]3CC[C@H](Cc4cc(-n5nc(C)c6c5CC(C)(C)CC6=O)ccc4C(N)=O)CC3)CC2)ccc1N(CC)c1ncc2c(n1)N(C)c1ccccc1C(=O)N2C` [Compound 151] the value was > 1000 nM; for `Cc1sc2c(c1C)C(c1ccc(Cl)cc1)=N[C@@H](CC(=O)N[C@H](C)c1cccc(CN3CCC(Cc4ccc(-n5c(O)nnc5-c5cc(C(C)C)c(O)cc5O)cc4)CC3)c1)c1nnc(C)n1-2` [Compound 56], < 100 nM. For `CCOc1cc(N2CCC(C(=O)NCCCNC(=O)O[C@H]3CC[C@H](Nc4cc(-n5nc(C(F)(F)F)c6c5CC(C)(C)CC6=O)ccc4C(N)=O)CC3)CC2)ccc1Nc1ncc2c(n1)N(C)c1ccccc1C(=O)N2C` [Compound 150] the value was > 1000 nM. For the compound `Cc1sc2c(c1C)C(c1ccc(Cl)cc1)=N[C@@H](CC(=O)NCCOCCN[C@@H](C)C(=O)N[C@H](C(=O)N1CCC[C@H]1C(=O)Nc1snnc1-c1ccccc1)C1CCCCC1)c1nnc(C)n1-2` [Compound 167], the IC50 was > 1000 nM. Consider `CCOc1cc(N2CCC(C(=O)N3CCC(COc4ccc(Nc5cc(-n6nc(C(F)(F)F)c7c6CC(C)(C)CC7=O)ccc5C(N)=O)cc4)CC3)CC2)ccc1Nc1ncc2c(n1)N(C)c1ccccc1C(=O)N2C` [Compound 159], for which the IC50 was > 1000 nM. Take `Cc1sc2c(c1C)C(c1ccc(Cl)cc1)=N[C@@H](CC(=O)N1CCC(CN3CCN(Cc4ccc(-n5c(C(=O)NC(C)C)nnc5-c5cc(C(C)C)c(O)cc5O)cc4)CC3)CC1)c1nnc(C)n1-2` [Compound 77]: the concentration for half-maximal inhibition (IC50) fell in the range of 100 to 1000 nM.

Turning to `Cc1sc2c(c1C)C(c1ccc(Cl)cc1)=N[C@@H](CC(=O)NCc1ccc(CN3CCC(Cc4ccc(-n5c(O)nnc5-c5cc(C(C)C)c(O)cc5O)cc4)CC3)cc1)c1nnc(C)n1-2` [Compound 60], the IC50 was < 100 nM. With `CCc1cc(-c2nnc(C(=O)NCCN3CCCCC3)n2-c2ccc(CN3CCN(CC4CCN(C(=O)C[C@@H]5N=C(c6ccc(Cl)cc6)c6c(sc(C)c6C)-n6c(C)nnc65)CC4)CC3)cc2)c(O)cc1O` [Compound 82] the figure was < 100 nM; with `CCOc1cc(N2CCC(C(=O)NCc3ccc(-n4c(O)nnc4-c4cc(C)c(O)cc4O)cc3)CC2)ccc1Nc1ncc2c(n1)N(C)c1ccccc1C(=O)N2C` [Compound 120], 100 to 1000 nM; with `CCc1cc(-c2nnc(C(=O)NC3(C)CC3)n2-c2ccc(CN3CCN(CC4CCN(C(=O)C[C@@H]5N=C(c6ccc(Cl)cc6)c6c(sc(C)c6C)-n6c(C)nnc65)CC4)CC3)cc2)c(O)cc1O` [Compound 104], < 100 nM.

Turning to `CCOc1cc(N2CCC(C(=O)N3CCN(C(=O)O[C@H]4CC[C@H](Nc5cc(-n6nc(C(F)(F)F)c7c6CC(C)(C)CC7=O)ccc5C(N)=O)CC4)CC3)CC2)ccc1Nc1ncc2c(n1)N(C)c1ccccc1C(=O)N2C` [Compound 152], the IC50 was > 1000 nM. With `CCc1cc(-c2nnc(C(=O)NC3CC3)n2-c2ccc(CN3CCN(CC4CCN(C(=O)C[C@@H]5N=C(c6ccc(Cl)cc6)c6c(sc(C)c6C)-n6c(C)nnc65)CC4)CC3)cc2)c(O)cc1O` [Compound 101], the IC50 was < 100 nM. Compound `CCN(Cc1ccc(OCCCNC(=O)C[C@@H]2N=C(c3ccc(Cl)cc3)c3c(sc(C)c3C)-n3c(C)nnc32)cc1)Cc1ccc(-n2c(C(=O)NCC(F)(F)F)nnc2-c2cc(C(C)C)c(O)cc2O)cc1` [Compound 72] showed an IC50 of 100 to 1000 nM. Consider `CCc1cc(-c2nnc(C(=O)NC(CC)CC)n2-c2ccc(CN3CCN(CC4CCN(C(=O)C[C@@H]5N=C(c6ccc(Cl)cc6)c6c(sc(C)c6C)-n6c(C)nnc65)CC4)CC3)cc2)c(O)cc1O` [Compound 103], for which the IC50 was in the range of 100 to 1000 nM. For `COc1cccc(-c2cc(C(=O)Nc3ccc(-c4ccc(OC5CCN(C(=O)CNC(=O)N[C@@H]6N=C(c7ccc(Cl)cc7)c7c(sc(C)c7C)-n7c(C)nnc76)CC5)cc4O)cc3)ccc2OC)c1` [Compound 132] the value was > 1000 nM; for `Cc1sc2c(c1C)C(c1ccc(Cl)cc1)=N[C@@H](CC(=O)NCCOCCOCCOCCOc1ccc(Nc3cc(-n4nc(C(F)(F)F)c5c4CC(C)(C)CC5=O)ccc3C(N)=O)cc1)c1nnc(C)n1-2` [Compound 162], > 1000 nM; for `CCCc1cc(-c2nnc(O)n2-c2ccc(CN3CCN(C(=O)C4CCN(c5ccc(Nc6ncc7c(n6)N(C)c6ccccc6C(=O)N7C)c(OCC)c5)CC4)CC3)cc2)c(O)cc1O` [Compound 128], 100 to 1000 nM. For `Cc1sc2c(c1C)C(c1ccc(Cl)cc1)=N[C@@H](CC(=O)N1CCC(Cc3ccc(CN(C)Cc4ccc(-n5c(C(=O)NCC(F)(F)F)nnc5-c5cc(C(C)C)c(O)cc5O)cc4)cn3)CC1)c1nnc(C)n1-2` [Compound 109] the value was 100 to 1000 nM. For `Cc1sc2c(c1C)C(c1ccc(Cl)cc1)=N[C@@H](CC(=O)N1CCC(CN3CCN(Cc4ccc(-n5c(C(=O)NC(C)C)nnc5-c5ccc(O)cc5O)cc4)CC3)CC1)c1nnc(C)n1-2` [Compound 91] the value was < 100 nM; for `CCOc1cc(N2CCC(C(=O)NCc3ccc(-n4c(O)nnc4-c4cc(CC)c(O)cc4O)cc3F)CC2)ccc1Nc1ncc2c(n1)N(C)c1ccccc1C(=O)N2C` [Compound 125], > 1000 nM. The compound `CCOc1cc(N2CCC(C(=O)NCc3ccc(-n4c(O)nnc4-c4cc(C(C)C)c(O)cc4O)cc3C(F)(F)F)CC2)ccc1Nc1ncc2c(n1)N(C)c1ccccc1C(=O)N2C` [Compound 122] came in with an IC50 of 100 to 1000 nM. Take `COc1cccc(-c2cc(C(=O)Nc3ccc(-c4ccc(OC5CCN(C)CC5)cc4COCN(C)CC[C@@H]4N=C(c5ccc(Cl)cc5)c5c(sc(C)c5C)-n5c(C)nnc54)cc3)ccc2OC)c1` [Compound 133]: the 50% inhibitory concentration (IC50) was > 1000 nM. Compound `Cc1sc2c(c1C)C(c1ccc(Cl)cc1)=N[C@@H](CC(=O)N1CCN(Cc3ccc4c(c3F)CN(C(=O)c3cc(C(C)C)c(O)cc3O)C4)CC1)c1nnc(C)n1-2` [Compound 100] yielded an IC50 of 100 to 1000 nM.

In the case of `CCCc1cc(-c2nnc(O)n2-c2ccc(CNC(=O)C3CCN(c4ccc(Nc5ncc6c(n5)N(C)c5ccccc5C(=O)N6C)c(OCC)c4)CC3)cc2)c(O)cc1O` [Compound 121], the IC50 is > 1000 nM.
